# Data as given in patent US12655150B2 (Cedilla Therapeutics, Inc., priority 2021, dated 2026).
# System: NCI-H226
# Experiment: 72H TEAD Proliferation Assay (Cell Titer Glo 2.0)
# Format: cell-based
# Settings: CTG 2.0, cell line not given (NCI-H226 responsive, NCI-H28 non-responsive)
# Procedure: 72H TEAD Proliferation Assay.
# The effect of TEAD inhibition on cell proliferation was assayed using Cell Titer Glo (CTG) 2.0 to measure response in mesothelioma cell lines NCI-H226 (ATCC, #CRL-5826) and NCI-H28 (ATCC, #CRL-5820).
# The 72H TEAD Proliferation assay utilizes Cell Titer-Glo 2.0 (Promega, #G9243) to measure the proliferation of cells in the presence or absence of compound. Cell Titer-Glo 2.0 determines the amount of viable cells by quantifying ATP (an indication of metabolically active cells). It utilizes the conversion of Luciferin to Oxyluciferin and a luminescent signal with the use of ATP to report the quantity of viable cells in culture. Within cells that are continually growing, ATP is being synthesized to meet their metabolic demands, meanwhile the opposite is true for cells that are dying or slowing down their proliferation and either no longer using ATP or are using less, respectively. The NF2-deficient NCI-H226 has been genetically validated as a cell line that is sensitive to TEAD inhibition. The NF2-wild type NCI-H28 has been genetically validated as a cell line that is not sensitive to TEAD inhibition and grows independently of TEAD activity.
# Compounds were screened against the responsive NCI-H226 cell line to assess the compounds' ability to inhibit TEAD and cell growth. Compounds were also screened against the non-responsive NCI-H28 cell line to ascertain whether the inhibition of cell growth was due to inhibition of the target TEAD or whether the inhibition was due to off-target cytotoxicity.
# • 1) Assay ready plates (ARPs) were prepared by Echo acoustic liquid handler. […] After CTG addition, plates were placed on shaker at 800 RPM for 15 minutes at room temperature and kept in the dark. Luminescence was measured using EnVision multilabel plate reader with ultra-sensitive detection module. • 9) Data Analysis: First background luminescence (no CTG wells) was subtracted from luminescence reading of all wells, then TO luminescence was subtracted from T72 luminescence. To compare anti-proliferative effect of compounds, GI50 was obtained by fitting dose response curves with nonlinear regression curve fit.
row,GI50 [µM],SMILES
1,5 to 10,"CC(C)(C)c1ccc(-c2nc3cc(S(C)(=N)=O)ccc3n3cccc23)cc1 (single isomer, unassigned) [I-209, (4-(4-(tert-Butyl)phenyl)pyrrolo[1,2-a]quinoxalin-7-yl)(imino)(methyl)-16-sulfanone]"

# Same assay, conditions: Homo sapiens, NCI-H226, 72 h, CTG 2.0, cell line not given (NCI-H226 responsive, NCI-H28 non-responsive)
row,GI50 [µM],SMILES
1,≤ 1,"COc1cc(-c2ccc(C(F)(F)F)cc2)nc2cc(C(=O)O)ccc12 [I-181, 4-methoxy-2-(4-(trifluoromethyl)phenyl)quinoline-7-carboxylic acid]"
2,5 to 10,"FC(F)(F)c1ccc(-c2nc3cc(-c4nnn[nH]4)ccc3n3cccc23)cc1 [I-184, 7-(1H-tetrazol-5-yl)-4-(4-(trifluoromethyl)phenyl)pyrrolo[1,2-a]quinoxaline]"
3,5 to 10,"COc1cc(C(F)(F)F)ccc1-c1nc2cc(C(=O)O)ccc2n2cccc12 [I-55, 4-(2-Methoxy-4-(trifluoromethyl)phenyl)pyrrolo[1,2-a]quinoxaline-7-carboxylic acid]"
4,≤ 1,"C=CC(=O)Nc1ccc2c(C)cc(-c3ccc(C(F)(F)F)cc3F)nc2c1 [I-90, N-(2-(2-fluoro-4-(trifluoromethyl)phenyl)-4-methylquinolin-7-yl)acrylamide]"
5,> 10,"CC(C)(C)c1ccc(-c2nc(O)cn3ccnc23)cc1 [I-148, 8-(4-(tert-Butyl)phenyl)imidazo[1,2-a]pyrazin-6-ol]"
6,5 to 10,"CC(C)(C)c1ccc(-c2nc3cc(NC(=O)c4ccccn4)ccc3n3cccc23)cc1 [I-207, N-(4-(4-(tert-butyl)phenyl)pyrrolo[1,2-a]quinoxalin-7-yl)picolinamide]"
7,≤ 1,"C=CC(=O)NCc1cn2ccnc2c(-c2ccc(SC(F)(F)F)cc2)n1 [I-448, N-((8-(4-((trifluoromethyl)thio)phenyl)imidazo[1,2-a]pyrazin-6-yl)methyl)acrylamide]"
8,1 to 5,"CC(C)(C)c1ccc(-c2nc3cc(C(=O)O)ccc3n3ncnc23)cc1 [I-287, 4-(4-(tert-butyl)phenyl)-[1,2,4]triazolo[1,5-a]quinoxaline-7-carboxylic acid]"
9,1 to 5,"CC(C)(C)c1ccc(-c2nc3cc(C(=O)O)ccc3n3ccnc23)c(F)c1 [I-59, 4-(4-(tert-Butyl)-2-fluorophenyl)imidazo[1,2-a]quinoxaline-7-carboxylic acid]"
10,> 10,"CC(C)(C)c1cccc(-c2nc3cc(C(=O)O)ccc3n3ccnc23)c1 [I-65, 4-(3-(tert-Butyl)phenyl)imidazo[1,2-a]quinoxaline-7-carboxylic acid]"
11,1 to 5,"CC1CCN(c2nc3cc(C(=O)O)ccc3n3cccc23)CC1 [I-16, 4-(4-Methylpiperidin-1-yl)pyrrolo[1,2-a]quinoxaline-7-carboxylic acid]"
12,≤ 1,"Cc1cc(-c2ccc(C(F)(F)F)cc2)nc2cc(C(=O)NCCO)ccc12 [I-259, N-(2-hydroxyethyl)-4-methyl-2-(4-(trifluoromethyl)phenyl)quinoline-7-carboxamide]"
13,≤ 1,"C=CC(=O)NCc1cn2cccc2c(-c2ccc(C(C)(C)C)cc2)n1 [I-111, N-((1-(4-(tert-butyl)phenyl)pyrrolo[1,2-a]pyrazin-3-yl)methyl)acrylamide]"
14,≤ 1,"C=CC(=O)NCc1nc(-c2ccc(C(F)(F)F)cc2)c2ccccc2n1 [I-167, N-((4-(4-(trifluoromethyl)phenyl)quinazolin-2-yl)methyl)acrylamide]"
15,≤ 1,"C=CC(=O)NCc1nc(-c2ccc(C(F)(F)F)cc2)cc2nccn12 [I-322, N-((7-(4-(Trifluoromethyl)phenyl)imidazo[1,2-c]pyrimidin-5-yl)methyl)acrylamide]"
16,> 10,"CC(C)(C)c1ccc(-c2nc3cc(-c4nnn[nH]4)ccc3n3ccnc23)cc1 [I-76, 4-(4-(tert-Butyl)phenyl)-7-(1H-tetrazol-5-yl)imidazo[1,2-a]quinoxaline]"
17,≤ 1,"C=CC(=O)Nc1ccc2c(c1)nc(-c1ccc(C(F)(F)F)cn1)c1nccn12 [I-312, N-(4-(5-(trifluoromethyl)pyridin-2-yl)imidazo[1,2-a]quinoxalin-7-yl)acrylamide]"
18,> 10,"O=C(O)c1ccc2c(c1)nc(NCCC(F)(F)F)c1cccn12 [I-107, 4-((3,3,3-Trifluoropropyl)amino)pyrrolo[1,2-a]quinoxaline-7-carboxylic acid]"
19,≤ 1,"O=C(O)c1ccc2c(c1)nc(-c1ccc(OC(F)(F)F)cc1)c1cccn12 [I-192, 4-(4-(trifluoromethoxy)phenyl)pyrrolo[1,2-a]quinoxaline-7-carboxylic acid]"

row,GI50 [µM],SMILES
1,≤ 1,"C=CC(=O)NCc1cc2cccc(F)c2c(-c2ccc(C(F)(F)F)cc2)n1 [I-289, N-((8-fluoro-1-(4-(trifluoromethyl)phenyl)isoquinolin-3-yl)methyl)acrylamide]"
2,1 to 5,"CC(C)(C)c1ccc(-c2nc3cc(C(=O)O)ccc3n3nccc23)cc1 [I-117, 4-(4-(tert-Butyl)phenyl)pyrazolo[1,5-a]quinoxaline-7-carboxylic acid]"
3,≤ 1,"Cc1cc2c(-c3ccc(C(F)(F)F)cc3F)nc3cc(C(=O)O)ccc3n2c1 [I-84, 4-(2-Fluoro-4-(trifluoromethyl)phenyl)-2-methylpyrrolo[1,2-a]quinoxaline-7-carboxylic acid]"
4,5 to 10,"CC(C)(C)c1ccc(-c2nc3cc(C(=O)NCCOCCOCCN)ccc3n3cccc23)cc1 [I-385, N-(2-(2-(2-Aminoethoxy)ethoxy)ethyl)-4-(4-(tert-butyl)phenyl)pyrrolo[1,2-a]quinoxaline-7-carboxamide]"
5,> 10,"Cc1ccc(-c2nc3cc(C(=O)O)ccc3n3cccc23)cc1 [I-45, 4-(p-Tolyl)pyrrolo[1,2-a]quinoxaline-7-carboxylic acid]"
6,≤ 1,"Cc1cc2c(-c3ccc(C(F)(F)F)cc3)nc3cc(C(=O)O)ccc3n2c1 [I-404, 2-Methyl-4-(4-(trifluoromethyl)phenyl)pyrrolo[1,2-a]quinoxaline-7-carboxylic acid]"
7,≤ 1,"C=C(F)C(=O)NCc1cc2ccccc2c(-c2ccc(C(C)(C)C)cc2)n1 [I-215, N-((1-(4-(tert-butyl)phenyl)isoquinolin-3-yl)methyl)-2-fluoroacrylamide]"
8,≤ 1,"C=CC(=O)NCc1nc(-c2ccc(C(F)(F)F)cc2F)c2ccccc2n1 [I-303, N-((4-(2-fluoro-4-(trifluoromethyl)phenyl)quinazolin-2-yl)methyl)acrylamide]"
9,1 to 5,"CC(C)c1cc(-c2ccc(C(F)(F)F)cc2)nc2cc(C(=O)N[C@H](C)CO)ccc12 [I-426, (R)—N-(1-hydroxypropan-2-yl)-4-isopropyl-2-(4-(trifluoromethyl)phenyl)quinoline-7-carboxamide]"
10,≤ 1,"O=C(O)c1ccc2c(-c3cnco3)cc(-c3ccc(C(F)(F)F)cc3)nc2c1 [I-389, 4-(oxazol-5-yl)-2-(4-(trifluoromethyl)phenyl)quinoline-7-carboxylic acid]"
11,1 to 5,"Cc1cc(C(F)(F)F)ccc1-c1nc2cc(C(=O)O)ccc2n2cccc12 [I-52, 4-(2-Methyl-4-(trifluoromethyl)phenyl)pyrrolo[1,2-a]quinoxaline-7-carboxylic acid]"
12,> 10,"O=C(O)c1ccc2c(c1)nc(C1CCC1)c1cccn12 [I-113, 4-Cyclobutylpyrrolo[1,2-a]quinoxaline-7-carboxylic acid]"
13,> 10,"CC(C)(C)c1ccc(-c2nc(CCC(=O)O)cn3ccnc23)cc1 [I-153, 3-(8-(4-(tert-Butyl)phenyl)imidazo[1,2-a]pyrazin-6-yl)propanoic acid]"
14,≤ 1,"C=CC(=O)NCc1cc(-c2ccc(C(F)(F)F)cc2)nn2ccnc12 [I-290, N-((6-(4-(trifluoromethyl)phenyl)imidazo[1,2-b]pyridazin-8-yl)methyl)acrylamide]"
15,≤ 1,"COc1cc(-c2ccc(C(F)(F)F)cc2)nc2cc(C(=O)N[C@@H](C)c3cccc(O)c3)ccc12 [I-349, (S)—N-(1-(3-hydroxyphenyl)ethyl)-4-methoxy-2-(4-(trifluoromethyl)phenyl)quinoline-7-carboxamide]"
16,> 10,"CC(C)(C)c1ccc(-c2nc3cc(C(=O)NS(C)(=O)=O)ccc3n3cccc23)cc1 [I-123, 4-(4-(tert-Butyl)phenyl)-N-(methylsulfonyl)pyrrolo[1,2-a]quinoxaline-7-carboxamide]"
17,≤ 1,"COc1cc(-c2ccc(C(F)(F)F)cc2)nc2cc(C(=O)N[C@@H](C)c3ccccn3)ccc12 [I-327, (S)-4-methoxy-N-(1-(pyridin-2-yl)ethyl)-2-(4-(trifluoromethyl)phenyl)quinoline-7-carboxamide]"
18,≤ 1,"C[C@H](CO)NC(=O)c1ccc2c(c1)nc(-c1ccc(C(C)(C)C)cc1)c1cccn12 [I-191, (R)-4-(4-(tert-butyl)phenyl)-N-(1-hydroxypropan-2-yl)pyrrolo[1,2-a]quinoxaline-7-carboxamide]"
